According to patent US10765114B2, “4-amino-6-(pyridyl and 2-substitutedphenyl)-picolinates and 6-amino-2-(pyridyl and 2-substitutedphenyl)-pyrimidine-4-carboxylates and their use as herbicides” (Dow AgroSciences LLC, priority 2013, dated 2020):
Read-outs that look alike come from different tables or passages of the source.

How the values were obtained:
[1] = system: Key Broadleaf Weed and Crop Species; experiment: Post-Emergent Test II (Table 5); assay type: in vivo; conditions: post-emergence, 336 h; for pest or weed control at 70 g/ha: application rate 70 (kg ai/ha; footnote: g ai/ha); for pest or weed control at 140 g/ha: application rate 140 (kg ai/ha; footnote: g ai/ha)
Outline: (§1)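 Visual injury ratings (0 = no injury, 100 = complete kill) were taken 14 days after treatment relative to untreated plants. Seedlings at the first or second true leaf stage received an overhead spray at 187 L/ha, and solvent-blank sprayed plants served as controls.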

[2] = system: Key Grass and Sedge Weeds as well as Grass Crops; experiment: Post-Emergent Test II (Table 6); assay type: in vivo; conditions: post-emergence, 336 h, 14 days after application; for pest or weed control at 70 g/ha: 70 g ai/ha; for pest or weed control at 140 g/ha: 140 g ai/ha
Outline: as §1

[3] = Abutilon theophrasti, ABUTH: velvetleaf (Abutilon theophrasti), read-out: Visual Growth Reduction (%) 14 Days After Application ABUTH
[4] = Amaranthus retroflexus, AMARE: redroot pigweed (Amaranthus retroflexus), read-out: Visual Growth Reduction (%) 14 Days After Application AMARE
[5] = Brassica napus, BRSSS: oilseed rape, canola (Brassica napus), read-out: Visual Growth Reduction (%) 14 Days After Application BRSSS
[6] = Chenopodium album, CHEAL: lambsquarters (Chenopodium album), read-out: Visual Growth Reduction (%) 14 Days After Application CHEAL
[7] = Euphorbia heterophylla, EPHHL: wild poinsettia (Euphorbia heterophylla), read-out: Visual Growth Reduction (%) 14 Days After Application EPHHL
[8] = Helianthus annuus, HELAN: sunflower (Helianthus annuus), read-out: Visual Growth Reduction (%) 14 Days After Application HELAN
[9] = Viola tricolor, VIOTR: wild pansy (Viola tricolor), read-out: Visual Growth Reduction (%) 14 Days After Application VIOTR
[10] = CYPSS, read-out: Visual Growth Reduction (%) 14 Days After Application CYPSS
[11] = DIGSA: crabgrass (Digitaria sanguinalis), read-out: Visual Growth Reduction (%) 14 Days After Application DIGSA
[12] = ECHSS, read-out: Visual Growth Reduction (%) 14 Days After Application ECHSS
[13] = ORYSS (crop), read-out: Visual Growth Reduction (%) 14 Days After Application ORYSS
[14] = SETFA: giant foxtail (Setaria faberi), read-out: Visual Growth Reduction (%) 14 Days After Application SETFA
[15] = SORVU: grain sorghum (Sorghum vulgare), read-out: Visual Growth Reduction (%) 14 Days After Application SORVU
[16] = TRZSS (crop), read-out: Visual Growth Reduction (%) 14 Days After Application TRZSS
[17] = ZEAMX: maize, corn (Zea mays), read-out: Visual Growth Reduction (%) 14 Days After Application ZEAMX

SMILES | pest or weed control at 70 g/ha [1, 3] [%] | pest or weed control at 140 g/ha [1, 3] [%] | pest or weed control at 70 g/ha [1, 4] [%] | pest or weed control at 140 g/ha [1, 4] [%] | pest or weed control at 70 g/ha [1, 5] [%] | pest or weed control at 140 g/ha [1, 5] [%] | pest or weed control at 70 g/ha [1, 6] [%] | pest or weed control at 140 g/ha [1, 6] [%] | pest or weed control at 70 g/ha [1, 7] [%] | pest or weed control at 140 g/ha [1, 7] [%] | pest or weed control at 70 g/ha [1, 8] [%] | pest or weed control at 140 g/ha [1, 8] [%] | pest or weed control at 70 g/ha [1, 9] [%] | pest or weed control at 140 g/ha [1, 9] [%] | pest or weed control at 70 g/ha [2, 11] [%] | pest or weed control at 140 g/ha [2, 11] [%] | pest or weed control at 70 g/ha [2, 12] [%] | pest or weed control at 140 g/ha [2, 12] [%] | pest or weed control at 70 g/ha [2, 13] [%] | pest or weed control at 140 g/ha [2, 13] [%] | other results
C#Cc1c(-c2cc(N)c(Cl)c(C(=O)OC)n2)ccc(Cl)c1F [Compound 75, methyl 4-amino-3-chloro-6-(4-chloro-2-ethynyl-3-fluorophenyl)picolinate] | 0 to 29 | 0 to 29 | 0 to 29 | 0 to 29 | 0 to 29 | 0 to 29 | 75 to 84 | 75 to 84 | 0 to 29 | 0 to 29 | 0 to 29 | 0 to 29 | 0 to 29 | 0 to 29 | 0 to 29 | 0 to 29 | 0 to 29 | 0 to 29 | 0 to 29 | 0 to 29 | pest or weed control at 70 g/ha [2, 10]: 0 to 29%; pest or weed control at 140 g/ha [2, 10]: 0 to 29%; pest or weed control at 70 g/ha [2, 14]: 0 to 29%; pest or weed control at 140 g/ha [2, 14]: 0 to 29%; pest or weed control at 70 g/ha [2, 15]: 0 to 29%; pest or weed control at 140 g/ha [2, 15]: 0 to 29%; pest or weed control at 70 g/ha [2, 16]: 0 to 29%; pest or weed control at 140 g/ha [2, 16]: 0 to 29%; pest or weed control at 70 g/ha [2, 17]: 0 to 29%; pest or weed control at 140 g/ha [2, 17]: 0 to 29%
Cc1c(-c2cc(N)c(Cl)c(C(=O)O)n2)ccc(C(F)(F)F)c1F [Compound 61, 4-amino-3-chloro-6-(3-fluoro-2-methyl-4-(trifluoromethyl)phenyl)picolinic acid] | 85 to 94 | 85 to 94 | 0 to 29 | 0 to 29 | 45 to 59 | 60 to 74 | 85 to 94 | 85 to 94 | 95 to 100 | 95 to 100 | 85 to 94 | 85 to 94 | 0 to 29 | 0 to 29 | 0 to 29 | 0 to 29 | 85 to 94 | 85 to 94 | 0 to 29 | 0 to 29 | pest or weed control at 70 g/ha [2, 14]: 45 to 59%; pest or weed control at 140 g/ha [2, 14]: 60 to 74%; pest or weed control at 70 g/ha [2, 15]: 0 to 29%; pest or weed control at 140 g/ha [2, 15]: 0 to 29%; pest or weed control at 70 g/ha [2, 16]: 0 to 29%; pest or weed control at 140 g/ha [2, 16]: 30 to 44%; pest or weed control at 70 g/ha [2, 17]: 0 to 29%; pest or weed control at 140 g/ha [2, 17]: 0 to 29%
COC(=O)c1nc(-c2ccc(Cl)c(F)c2C(=O)O)cc(N)c1Cl [Compound 91, 6-(4-amino-5-chloro-6-(methoxycarbonyl)pyridin-2-yl)-3-chloro-2-fluorobenzoic acid] | 0 to 29 | 0 to 29 | 0 to 29 | 0 to 29 | 0 to 29 | 0 to 29 | 0 to 29 | 0 to 29 | 0 to 29 | 0 to 29 | 0 to 29 | 0 to 29 | 0 to 29 | 0 to 29 | 0 to 29 | 0 to 29 | 0 to 29 | 0 to 29 | 0 to 29 | 0 to 29 | pest or weed control at 70 g/ha [2, 10]: 0 to 29%; pest or weed control at 140 g/ha [2, 10]: 0 to 29%; pest or weed control at 70 g/ha [2, 14]: 0 to 29%; pest or weed control at 140 g/ha [2, 14]: 0 to 29%; pest or weed control at 70 g/ha [2, 15]: 0 to 29%; pest or weed control at 140 g/ha [2, 15]: 0 to 29%; pest or weed control at 70 g/ha [2, 16]: 0 to 29%; pest or weed control at 140 g/ha [2, 16]: 0 to 29%; pest or weed control at 70 g/ha [2, 17]: 0 to 29%; pest or weed control at 140 g/ha [2, 17]: 0 to 29%
